Reference: paper PMC4589873, “A pain-inducing centipede toxin targets the heat activation machinery of nociceptor TRPV1” (Nature Communications, 2015)

What was measured:
[1] = tested on: mTRPV1 point mutants at D602, Y632, T634 and L461; assay: Whole-cell current of mTRPV1 point mutants; type: cell-based, mouse; conditions: glycine or alanine mutation, both at 10 μM, +80 mV
Text: (§1) TRPV1 and TRPV3 chimeras used in this study were generated by the overlapping extension method[54] and confirmed by DNA sequencing, as described previously. Briefly, to generate V1/3S, the primer pairs (5′-[…]-3′and 5′-[…]-3′) were used. To generate other TRPV1/TRPV3 chimeras, the enzyme cutting sites by MluI were made by the primer pair (5′-[…]-3′ and 5′-[…]-3′) for TRPV1 and the primer pair (5′-[…]-3′ and 5′-[…]-3′) for TRPV3. The enzyme cutting sites by PvuI were made by the primer pair (5′-[…]-3′ and 5′-[…]-3′) for TRPV1 and the primer pair (5′-[…]-3′ and 5′-[…]-3′) for TRPV3. The enzyme cutting sites by BsiWI were made by the primer pair (5′-[…]-3′ and 5′-[…]-3′) for TRPV1 and the primer pair (5′-[…]-3′ and 5′-[…]-3′) for TRPV3. V1/3M were generated by enzyme cut and paste between MluI and PvuI sites, while V1/3L were generated by enzyme cut and paste between MluI and BsiWI sites. V1_S1S2_1, V1_S1S2_3 and V1_S1S2_3 were generated as previously reported. […]
As described in details in a previous report, macroscopic currents (in whole-cell, inside-out or outside-out configuration) as well as single-channel currents were recorded using a HEKA EPC10 amplifier with the PatchMaster software (HEKA). […] Statistical difference was determined using the Student’s t-test, and indicated by ** when reaching the significance level P<0.001.

[2] = tested on: mTRPV1 point mutants at D602, Y632, T634 and L461; assay: Calcium imaging of mTRPV1 point mutants; type: cell-based, mouse; conditions: glycine or alanine mutation; 10 μM RhTx, 10 μM capsaicin
Text: as §1, with “TRPV3.” for “TRPV3. V1/3M were generated by enzyme cut and paste between MluI and PvuI sites, while V1/3L were generated by enzyme cut and paste between MluI and BsiWI sites. V1_S1S2_1, V1_S1S2_3 and V1_S1S2_3 were generated as previously reported.”
Mouse DRG neurons were acutely dissociated and maintained in a short-term primary culture according to procedures as previous descripted. […] Fluorescence images of DRG neurons and HEK-293T cells were acquired with an Olympus IX81 microscope with Hamamatsu C4742 charge-coupled device camera controlled by the MetaFluor Software (Molecular Devices). Fluo-4 was excited by a mercury vapour light source with a 500/20-nm excitation filter, while fluorescence emission was detected with a 535/30-nm emission filter. Fluorescence images were required with automated routines written in MetaMorph software (Molecular Devices) and analysed with Igor Pro (Wavemetrics).

[3] = tested on: Trpv1−/− knockout mice; assay: Paw-licking assay in TRPV1 knockout mice; type: in vivo, mouse; conditions: intraplantar, 1 μmol per paw
Experimental: In vivo effects of RhTx on WT mice or Trpv1^−/− mice were examined according to protocols described previously. For the paw-licking assay, pain was induced in mice by intraplantar injection of 0.1% formalin, capsaicin (1 μmol per paw) or RhTx (1 μmol per paw). Each of the testing materials was dissolved in 100 μl saline. Control mice received the same volume of saline. Injected mice were placed individually into open polyvinyl cages (20 × 40 × 15 cm). Time spent licking the injected paw was recorded by a digital video camera during the following 40 min. For recording colonic temperature from WT or Trpv1^−/− mice, mice equipped with a copper-constantan thermocouple were individually placed in open polyvinyl cages. A data logger was connected to the thermocouple. Mice were injected intraperitoneally with 100 μl saline containing capsaicin or RhTx. The dose of capsaicin or RhTx was 10 μmol kg^−1 for these experiments. Mice in the control group received the same volume of saline.

[4] = target: T1, mTRPV1 (Mus musculus, UniProt Q704Y3); assay: Whole-cell patch-clamp of mTRPV1 expressed in HEK293 cells; type: cell-based; conditions: SEM
T1 construct: expressed in transfected cells; host or cells: HEK-293T
Text: TRPV1 and TRPV3 chimeras used in this study were generated by the overlapping extension method[54] and confirmed by DNA sequencing, as described previously. Briefly, to generate V1/3S, the primer pairs (5′-[…]-3′and 5′-[…]-3′) were used. To generate other TRPV1/TRPV3 chimeras, the enzyme cutting sites by MluI were made by the primer pair (5′-[…]-3′ and 5′-[…]-3′) for TRPV1 and the primer pair (5′-[…]-3′ and 5′-[…]-3′) for TRPV3. The enzyme cutting sites by PvuI were made by the primer pair (5′-[…]-3′ and 5′-[…]-3′) for TRPV1 and the primer pair (5′-[…]-3′ and 5′-[…]-3′) for TRPV3. The enzyme cutting sites by BsiWI were made by the primer pair (5′-[…]-3′ and 5′-[…]-3′) for TRPV1 and the primer pair (5′-[…]-3′ and 5′-[…]-3′) for TRPV3. V1/3M were generated by enzyme cut and paste between MluI and PvuI sites, while V1/3L were generated by enzyme cut and paste between MluI and BsiWI sites. V1_S1S2_1, V1_S1S2_3 and V1_S1S2_3 were generated as previously reported. All mTRPV1 point mutations were constructed using the QuickChange II XL site-directed mutagenesis kit following the manufacturer’s instruction. These point mutations were sequenced to confirm that appropriate constructs were made. HEK-293T cells were cultured and transiently transfected using Lipofectamine 2,000 (Invitrogen) as previously described.
(§2) As described in details in a previous report, macroscopic currents (in whole-cell, inside-out or outside-out configuration) as well as single-channel currents were recorded using a HEKA EPC10 amplifier with the PatchMaster software (HEKA). Both pipette solution and bath solution contained 130 mM NaCl, 3 mM HEPES and 0.2 mM EDTA (pH 7.2). All recordings were performed at room temperature unless otherwise stated. A holding potential of 0 mV was used from which a testing pulse to +80 mV was applied. Statistical difference was determined using the Student’s t-test, and indicated by ** when reaching the significance level P<0.001.

[5] = tested on: TRPV1; assay: Cooling of RhTx- or capsaicin-induced channel activation; type: cell-based; conditions: RhTx at 1 μM
Experimental: as §2

T1 sequence (Q704Y3 whole entry): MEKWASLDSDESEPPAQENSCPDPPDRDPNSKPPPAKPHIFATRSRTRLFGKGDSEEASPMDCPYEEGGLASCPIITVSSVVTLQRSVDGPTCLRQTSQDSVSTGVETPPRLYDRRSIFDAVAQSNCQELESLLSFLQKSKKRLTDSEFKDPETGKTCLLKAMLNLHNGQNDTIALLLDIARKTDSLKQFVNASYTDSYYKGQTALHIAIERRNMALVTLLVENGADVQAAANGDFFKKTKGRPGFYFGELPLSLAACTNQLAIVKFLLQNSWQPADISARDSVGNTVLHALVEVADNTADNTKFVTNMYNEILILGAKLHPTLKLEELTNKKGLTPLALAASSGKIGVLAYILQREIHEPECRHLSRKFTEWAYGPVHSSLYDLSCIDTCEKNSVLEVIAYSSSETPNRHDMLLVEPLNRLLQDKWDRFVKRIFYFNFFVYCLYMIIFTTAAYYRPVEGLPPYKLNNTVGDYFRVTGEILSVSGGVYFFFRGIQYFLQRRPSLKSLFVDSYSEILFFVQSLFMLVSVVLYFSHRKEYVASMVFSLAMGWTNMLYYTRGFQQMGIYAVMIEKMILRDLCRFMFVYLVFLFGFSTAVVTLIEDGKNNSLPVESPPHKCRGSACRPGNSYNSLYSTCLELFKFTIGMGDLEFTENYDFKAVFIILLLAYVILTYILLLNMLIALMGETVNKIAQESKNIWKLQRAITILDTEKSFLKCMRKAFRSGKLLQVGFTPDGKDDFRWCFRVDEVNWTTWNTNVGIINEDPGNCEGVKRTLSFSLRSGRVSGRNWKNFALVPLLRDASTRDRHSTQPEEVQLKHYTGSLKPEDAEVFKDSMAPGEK

COc1cc(CNC(=O)CCCC/C=C/C(C)C)ccc1O [capsaicin, reference compound]
agonist-induced current in point mutants versus WT channel [1]: sparing | agonist-induced intracellular calcium increase in point mutants versus WT channel [2]: sparing | pain behaviour (paw licking) in knockout mice [3]: ineffective | EC50 [4]: 0.214 ± 0.0206 µM | Hill slope [4]: 1.36±0.18 | effect of lowering the experimental temperature on agonist-induced channel activation [5]: could not prevent
